Among the test systems are XF 498 CNS; HOP-18 NSCLC; MDA-MB-435; MDA-N; HS 578T breast; MDA-MB-231 breast; MCF7 breast; T-47D breast.
Common to all, as to test: NCI anticancer screen, dose series, 48 h

Molecules are shown by their SMILES. Where “and” joins values, the source holds several entries; their conditions need not be identical. Identical values can stand only once.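 The compound was tested at five concentrations on cells cultured in 96-well plates, with a 48-hour exposure period. GI50 is the concentration that inhibits growth by half. TGI denotes the concentration required for complete inhibition of growth.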 Where a SMILES comes first, the peptide text is derived from it. [ ]: non-standard residue; d: D form. Bounds are passed on as bounds.

For the molecule `NC1=Nc2ccccc2Sc2ccccc21`, the TGI in the experiment with XF 498 CNS and in the experiment on HOP-18 NSCLC was over 100 µM throughout.

Turning to `O=C(N/C(=C\c1ccc(F)cc1)c1nc2ccccc2[nH]1)c1ccccc1`, the TGI in the experiment on XF 498 CNS and in the experiment on HOP-18 NSCLC was over 100 µM throughout.

In the case of `Cc1ccc([N+]2=NC(c3ccccc3)=NN(c3ccccc3)C2)cc1`, in the experiment on XF 498 CNS, the TGI is over 100 µM.

As for `C=CCCC(=O)CC(=O)OCc1ccccc1`, the TGI in the experiment with XF 498 CNS and in the experiment on HOP-18 NSCLC was over 100 µM in each case.

For the molecule `CC1(C2CCC3(C)C(C2)C3Sc2ccccc2)OCCO1` (stereo not drawn), the TGI in the experiment with XF 498 CNS was determined as 40.7 µM.

The molecule `CCOc1ccccc1NC(=O)C1=C(C)NC(C)=C(C(=O)Nc2ccccc2OCC)C1c1cccc([N+](=O)[O-])c1` displayed a TGI with XF 498 CNS of over 100 µM.

In turn, `COC(=O)C(C)Oc1ccc(O)cc1` (stereo not drawn) came in with a TGI with HOP-18 NSCLC of over 100 µM.

In the case of `COc1cc(CCc2ccncc2)cc(OC)c1OC`, the TGI in the experiment on XF 498 CNS and in the experiment on HOP-18 NSCLC was over 100 µM each time.

As for `N#CC(C#N)C(c1ccccc1)c1ccccc1`, the TGI with HOP-18 NSCLC was over 100 µM.

Regarding `C=C1C(=O)OC2(C)CCC1CC1OC1(C)CCC=C(C)CCC2O` (stereo not drawn), the TGI was over 100 µM with MDA-MB-435; 97.4 µM in the experiment on MDA-N; over 100 µM in the experiment on HS 578T breast; over 100 µM in the experiment with MDA-MB-231 breast; over 100 µM in the experiment on MCF7 breast; over 100 µM in the experiment with T-47D breast.

In the experiment on XF 498 CNS, `CCOC(=O)C(=O)Nc1nc2ccc(C)cc2s1` displayed a TGI of over 100 µM.

Regarding `CCN(CC)CCNc1ccc([N+](=O)[O-])c2nc3ccc(OC)cc3c(N)c12`, the TGI with MDA-MB-435 was 2.98 µM; with MDA-N, 3.26 µM; in the experiment with HS 578T breast, 2.89 µM; with MDA-MB-231 breast, 3.25 µM; in the experiment with MCF7 breast it was 1.31 µM; in the experiment with T-47D breast, 3.16 µM.

With `COC1CC(n2cc(F)c(N)nc2=O)OC1CO` (stereo not drawn), the TGI with XF 498 CNS and in the experiment with HOP-18 NSCLC was over 100 µM each time.

Take `COc1ccc2c(c1)[nH]c1c3ccc(OC)cc3oc(=O)c21`: the TGI with MDA-MB-435, in the experiment on MDA-N, in the experiment on HS 578T breast, in the experiment on MDA-MB-231 breast, in the experiment on MCF7 breast and in the experiment on T-47D breast was over 100 µM each time.

For the molecule `Nc1ccn(C2CC3OCC3O2)c(=O)n1` (stereo not drawn), the TGI in the experiment on MDA-MB-435, in the experiment with MDA-N, in the experiment with HS 578T breast, with MDA-MB-231 breast, in the experiment with MCF7 breast and in the experiment with T-47D breast was over 100 µM throughout.

`O=C1C=CC(=O)c2c(O)c(N(CCCl)CCCl)c(Cl)c(O)c21`: the TGI in the experiment with MDA-MB-435 was 5.83 µM; in the experiment on MDA-N, 5.79 µM; in the experiment with HS 578T breast it was over 10 µM; with MDA-MB-231 breast, 6.75 µM; with MCF7 breast, over 8.33 µM; in the experiment with T-47D breast, 6.57 µM.

As to `CN1C/C(=C\c2ccc(C(=O)O)cc2)C(=O)/C(=C/c2ccc(C(=O)O)cc2)C1`, the TGI in the experiment on XF 498 CNS and with HOP-18 NSCLC was over 100 µM throughout.

In the experiment with HOP-18 NSCLC, `Cc1nc(-n2nc(-c3ccccc3)cc2-c2ccccc2)sc1C(=O)/C=C/c1cccc([N+](=O)[O-])c1` returned a TGI of 24.5 µM.

The molecule `O=C1C(=Cc2ccc(F)cc2)C(=O)c2ccccc21` displayed a TGI in the experiment with XF 498 CNS of over 100 µM.

`COC(=O)C(=O)C(C#N)c1c(Cl)cccc1Cl` (stereo not drawn) showed a TGI with XF 498 CNS of over 100 µM.

In the case of `CCN1CCC(O)(/C=C/c2ccccc2)C(C(=O)/C=C/c2ccccc2)C1` (stereo not drawn), the TGI with XF 498 CNS was 18.5 µM; in the experiment with HOP-18 NSCLC, 18.1 µM.

In the case of `CSCC[C@H](NC(=O)[C@@H](N)CC(N)=O)C(=O)N[C@@H](Cc1c[nH]c2ccccc12)C(=O)N[C@@H](CCC(N)=O)C(=O)N[C@@H](CCC(=O)O)C(=O)N[C@H](C(=O)NCC(=O)N[C@@H](CCCCN)C(=O)N[C@H](C)C(=O)O)C(C)C` (H-NMWQEVGK[dA]-OH), the TGI with MDA-MB-435, with MDA-N, with HS 578T breast, with MDA-MB-231 breast, in the experiment with MCF7 breast and in the experiment with T-47D breast was over 100 µM in each case.

Turning to `NC1=C(O)C(=O)C(c2c[nH]c3ccc(OCc4ccccc4)cc23)O1` (stereo not drawn), the TGI in the experiment with MDA-MB-435, in the experiment with MDA-N, in the experiment with HS 578T breast, in the experiment on MDA-MB-231 breast, in the experiment on MCF7 breast and in the experiment with T-47D breast was over 100 µM each time.

For `C/C(=N\Nc1n[nH]c(=S)n1N)c1c(O)cc(C)oc1=O`, the TGI with HOP-18 NSCLC was over 100 µM.

Regarding `COc1cc([C@@H]2c3cc4c(cc3[C@@H](NCc3cccc(F)c3)C3COC(=O)[C@@H]32)OCO4)cc(OC)c1O` (stereo partly drawn), the TGI in the experiment with HOP-18 NSCLC was over 65 µM.

As for `CC/C(C)=C1\CCC(CN(C)C)C1=O` (stereo not drawn), the TGI in the experiment with XF 498 CNS amounted to 34.7 µM; in the experiment on HOP-18 NSCLC, 32.2 µM.

`Oc1ccc(O)c(-n2cccn2)c1-n1cccn1` showed a TGI in the experiment with XF 498 CNS of over 100 µM.

Consider `CC1=C2C3OC(=O)C(C)C3C(O)C[C@@]2(C)C(=O)CC1` (stereo partly drawn), for which, in the experiment on HOP-18 NSCLC, the TGI was over 100 µM.

For `O=C1CC2OCC=C3CN4CCC5(C(=O)O)C(N1)C2C3CC45` (stereo not drawn), the TGI in the experiment with MDA-MB-435, with MDA-N, with HS 578T breast, in the experiment with MDA-MB-231 breast, in the experiment on MCF7 breast and in the experiment with T-47D breast was over 100 µM in each case.

For the molecule `COC(=O)Nc1nc2ccc(C(=O)c3cccs3)cc2[nH]1`, the GI50 with MDA-MB-435 was 0.029 µM; in the experiment on HS 578T breast it was 0.0244 µM and 0.0882 µM; in the experiment on MDA-MB-231 breast, 0.595 µM; in the experiment with MCF7 breast, 0.0618 µM; in the experiment on T-47D breast, over 100 µM. Further, the TGI with MDA-MB-435 is 0.158 µM and 0.102 µM; in the experiment on MDA-N, 2.57 µM; in the experiment with HS 578T breast, 50.9 µM and > 100 µM; in the experiment on MDA-MB-231 breast, 79.2 µM and > 100 µM; with MCF7 breast, 46.2 µM and > 100 µM; in the experiment with T-47D breast, over 100 µM. Besides, the TGI was 0.0934 µM in the experiment on XF 498 CNS and over 100 µM with HOP-18 NSCLC.

Molecule `N#CNC1=NCCC(=O)N1CCc1c[nH]c2ccccc12` returned a TGI with XF 498 CNS of over 100 µM.

`CC(C)OP(=O)(OC(C)C)/C(C#N)=C/c1c[nH]c2ccccc12`: the TGI in the experiment on MDA-MB-435, with MDA-N, in the experiment on HS 578T breast, in the experiment on MDA-MB-231 breast, with MCF7 breast and with T-47D breast was over 100 µM in each case.

Turning to `CC(CC(=O)Nc1ccc(NC(=O)CC(C)N=NC(N)=O)cc1)N=NC(N)=O` (stereo not drawn), the TGI in the experiment with XF 498 CNS and with HOP-18 NSCLC was over 100 µM each time.

As for `O=C1/C(=C/c2ccc(O)cc2)Oc2ccccc21`, the TGI in the experiment with MDA-MB-435, in the experiment on MDA-N, with HS 578T breast, in the experiment on MDA-MB-231 breast, with MCF7 breast and with T-47D breast was over 100 µM in each case.

In the experiment on XF 498 CNS, `CCCCOP1(=O)CC(C)=C(Cl)C(C)(OC)C1` (stereo not drawn) had a TGI of over 100 µM.

On to `O=C(CCc1cc(-c2ccc(F)cc2)n[nH]1)N(Cc1ccccc1)Cc1ccccc1`, for which the TGI in the experiment with XF 498 CNS and in the experiment with HOP-18 NSCLC was over 100 µM each time.

As to `Cc1ccc(C)c(NC(=O)C(=O)Nn2c(=S)[nH]c3ccccc3c2=O)c1`, in the experiment on HOP-18 NSCLC, the TGI is over 100 µM.

Regarding `N/C(CC(=O)NOC(=O)c1ccccc1)=N/OC(=O)c1ccccc1`, the TGI with MDA-MB-435 is over 100 µM; in the experiment with MDA-N, over 100 µM; with HS 578T breast, over 100 µM; with MDA-MB-231 breast, over 100 µM; with MCF7 breast, 92.4 µM; with T-47D breast, over 100 µM.

The molecule `O/N=C1\C(=C\c2ccc3c(c2)OCCO3)CCCC1C(NO)c1ccc2c(c1)OCCO2` (stereo not drawn) had a TGI with HOP-18 NSCLC of over 100 µM.

As for `C[C@H]1CC[C@@H]2[C@@H](C)[C@H]3[C@H](C[C@H]4[C@@H]5CC=C6C[C@@H](O)CC[C@]6(C)[C@H]5CC[C@]34C)N2C1`, the TGI with MDA-MB-435 is over 100 µM; in the experiment on MDA-N it was over 100 µM; with HS 578T breast, 97.9 µM; with MDA-MB-231 breast, over 100 µM; in the experiment with MCF7 breast, over 100 µM; in the experiment with T-47D breast, over 100 µM.

As for `CC1OC(=O)N2CCC=CC12` (stereo not drawn), the TGI with XF 498 CNS and in the experiment on HOP-18 NSCLC was over 100 µM throughout.

With `CC1=CC(=O)N2C(OC[C@@H]2c2ccccc2)O1` (stereo partly drawn), the TGI in the experiment on XF 498 CNS and in the experiment with HOP-18 NSCLC was over 100 µM throughout.

In the experiment with HOP-18 NSCLC, `COC(=O)C(/C(=N\O)C(=O)Nc1ccc(Br)cc1)c1nc2ccccc2[nH]c1=O` (stereo not drawn) gave a TGI of over 100 µM.

With `CCOC(=O)CC(C)C1(C=O)CCCCC1=O` (stereo not drawn), the TGI in the experiment on XF 498 CNS and in the experiment with HOP-18 NSCLC was over 100 µM each time.

For `NC(=O)c1nc(-c2ccc(Cl)c(Cl)c2)nc2ccccc12`, the TGI in the experiment on XF 498 CNS and in the experiment on HOP-18 NSCLC was over 100 µM throughout.

For `C[C@H]1CCC2C(OC(=O)[C@@H]2CN(C)C)[C@]2(C)C(=O)C=CC12O` (stereo partly drawn), the TGI with MDA-MB-435 is 22.4 µM; with MDA-N, 13.3 µM; in the experiment on HS 578T breast it was over 100 µM; in the experiment on MDA-MB-231 breast, 25.4 µM; in the experiment on MCF7 breast it was 24.5 µM; in the experiment on T-47D breast, 13.2 µM. Further, the TGI in the experiment on HOP-18 NSCLC came out at 38.9 µM.

`C=CCO[C@H]1CC[C@@]2(C)C(CC[C@]3(C)C2CC=C2[C@@H]4[C@@H](C)C(C)CC[C@]4(C(=O)O)CCC23C)C1(C)C` (stereo partly drawn): the TGI was determined as 20.2 µM with XF 498 CNS and 37.1 µM in the experiment on HOP-18 NSCLC.

In the case of `COC(=O)C#CC(N)=O`, the TGI in the experiment on HOP-18 NSCLC is over 81.1 µM.

Consider `C#C[C@@H](CCCC)OC(=O)N[C@H](C)c1ccccc1`, for which the TGI in the experiment with XF 498 CNS and with HOP-18 NSCLC was over 100 µM in each case.

Source of the values: PubChem BioAssay (NCI).
